# Measurements: patent publication US20130012491A1, “PYRIMIDINE DERIVATIVES FOR USE AS SPHINGOSINE 1-PHOSPHATE 1 (S1P1) RECEPTOR AGONISTS” (GLAXO GROUP LIMITED, priority 2010, published 2013)
# Where a name gives a salt, the structure may show the parent alone.
# Target: T1, S1P3 (human Endothelial Differentiation G-protein Coupled Receptor 3 (EDG3)) (Homo sapiens, UniProt Q99500)
# T1 construct: expressed in transfected cells; host or cells: GeneBLAzer EDG3-Ga15-NFAT-bla HEK 293T cells
# Assay: S1P3 GeneBlazer assay
# Format: cell-based
# Conditions: agonist, EDG3-Ga15-NFAT-bla HEK 293T cells, beta-lactamase FRET readout
# Description: GeneBLAzer EDG3-Ga15-NFAT-bla HEK 293T cells (contain the human Endothelial Differentiation G-protein Coupled Receptor 3 (EDG3) and a beta-lactamase reporter gene under control of a […] response element and a promiscuous G Protein, Ga15, stably integrated into the GeneBLAzer Ga15-NFAT-bla HEK 293T cell line) were harvested from growth medium and suspended in assay medium (90% DMEM, 10% Charcoal-stripped FBS, 0.1 mM NEAA, 25 mM HEPES (pH 7.3), 100 U/ml penicillin, 100 μg/ml streptomycin) at a density of ˜200,000 cells/ml.
# All test compounds were dissolved in DMSO at a concentration of 10 mM and were prepared in 100% DMSO to provide 10 point dose response curves. Test compounds prepared by Bravo (Velocity11) were added to wells in columns 2-11 and 13-22; DMSO was added to wells in columns 12 and 23 as unstimulated controls and assay medium was added to wells in columns 1 and 24 as cell-free controls. An S1P3 agonist was added to wells in row 2, columns 2-11 as stimulated controls and test compounds were added to wells in row 2, columns 13-22 and rows 3-15, columns 2-11/13-22 (row 1 and 16 were empty and not used). Compounds in solution were added to the assay plate (Greiner 781090) using an Echo (Labcyte) dose-response program (50 nl/well). The unstimulated and cell-free controls were loaded with 50 nl/well pure DMSO to ensure that the DMSO concentration was constant across the plate for all assays.
# 50 μl of the cell suspension was added to each well in columns 2-23 of the plate (˜10,000 cells per well). 50 μl of assay medium was added to each well in the cell-free controls (columns 1 and 24). The cells were incubated overnight at 37° C./5% CO2.
# 10 μl of 6× substrate mixture (LiveBLAzer™-FRET B/G substrate (CCF4-AM) Cat # K1096 from Invitrogen, Inc.) was added to each well using Bravo and the plates incubated at room temperature for 2 h in the dark. The plate was finally read on EnVision using one excitation channel (409 nm) and two emission channels (460 nm and 530 nm).
# The blue/green emission ratio (460 nm/530 nm) was calculated for each well, by dividing the background-subtracted Blue emission values by the background-subtracted Green emission values. The dose response curve is based on sigmoidal dose-response model. All ratio data was normalized based upon the maximum emission ratio of positive control and minimum emission ratio of negative control (DMSO) on each plate. The intrinsic activity (IA) of each compound would be the normalized percentage of its maximum response after curve fitting.
# T1 sequence (Q99500 whole entry): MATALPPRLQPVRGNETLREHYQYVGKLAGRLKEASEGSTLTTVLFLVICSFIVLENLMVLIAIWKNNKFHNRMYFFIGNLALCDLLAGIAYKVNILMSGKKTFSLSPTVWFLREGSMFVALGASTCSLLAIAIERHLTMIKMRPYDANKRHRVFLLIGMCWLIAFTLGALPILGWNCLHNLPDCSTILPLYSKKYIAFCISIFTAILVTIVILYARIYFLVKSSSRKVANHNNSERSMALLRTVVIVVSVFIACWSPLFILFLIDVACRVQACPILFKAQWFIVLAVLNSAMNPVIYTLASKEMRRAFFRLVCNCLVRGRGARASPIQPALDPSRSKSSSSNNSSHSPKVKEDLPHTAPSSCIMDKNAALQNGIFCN
row,SMILES,EC50 [µM]
1,"CCc1c(CNCCC(=O)O)cccc1-c1cnc(-c2ccc(OC(C)C)c(C(F)(F)F)c2)nc1 [Example 10, N-[(2-ethyl-3-{2-[4-[(1-methylethyl)oxy]-3-(trifluoromethyl)phenyl]-5-pyrimidinyl}phenyl)methyl]-b-alanine]",≤ 2
2,"CCc1c(CCN2CC[C@H](C(=O)O)C2)cccc1-c1cnc(-c2ccc(OC(C)C)c(Cl)c2)nc1 [Example 30, (3S)-1-{2-[3-(2-{3-chloro-4-[(1-methylethyl)oxy]phenyl}-5-pyrimidinyl)-2-ethylphenyl]ethyl}-3-pyrrolidinecarboxylic acid]",≤ 2
3,"CCc1c(CN2CC(C(=O)O)C2)cccc1-c1cnc(-c2ccc(OC(C)C)c(C(F)(F)F)c2)nc1 [Example 11, 1-[(2-ethyl-3-{2-[4-[(1-methylethyl)oxy]-3-(trifluoromethyl)phenyl]-5-pyrimidinyl}phenyl)methyl]-3-azetidinecarboxylic acid]",≤ 10
4,"CCc1c(CCN2CC(C(=O)O)C2)cccc1-c1cnc(-c2ccc(OC(C)C)c(Cl)c2)nc1 [Example 28, N-{2-[3-(2-{3-chloro-4-[(1-methylethyl)oxy]phenyl}-5-pyrimidinyl)-2-ethylphenyl]ethyl}-3-azetidinecarboxylic acid]",≤ 2
5,"CCc1c(CN2CCC(C(=O)O)CC2)cccc1-c1cnc(-c2ccc(OC(C)C)c(C(F)(F)F)c2)nc1 [Example 13, 1-[(2-ethyl-3-{2-[4-[(1-methylethyl)oxy]-3-(trifluoromethyl)phenyl]-5-pyrimidinyl}phenyl)methyl]-4-piperidinecarboxylic acid]",≤ 10
6,"CCc1c(-c2cnc(-c3ccc(OC(C)C)c(Cl)c3)nc2)cccc1C1CCN(CCC(=O)O)CC1 [Example 15, 3-{4-[3-(2-{3-chloro-4-[(1-methylethyl)oxy]phenyl}-5-pyrimidinyl)-2-ethylphenyl]-1-piperidinyl}propanoic acid trifluoroacetate]",≤ 10
7,"CCc1c(CCN2CCC(C(=O)O)C2)cccc1-c1cnc(-c2ccc(OC(C)C)c(Cl)c2)nc1 (stereo not shown) [Example 29, 1-{2-[3-(2-{3-chloro-4-[(1-methylethyl)oxy]phenyl}-5-pyrimidinyl)-2-ethylphenyl]ethyl}-3-pyrrolidinecarboxylic acid]",≤ 2
8,"CCc1c(CCN(C)CC(=O)O)cccc1-c1cnc(-c2ccc(OC(C)C)c(Cl)c2)nc1 [Example 27, N-{2-[3-(2-{3-chloro-4-[(1-methylethyl)oxy]phenyl}-5-pyrimidinyl)-2-ethylphenyl]ethyl}-N-methylglycine]",≤ 10

# Now from value to molecule:
row,EC50 [µM],SMILES
1,≤ 10,"CCc1c(CCN2CCCC(C(=O)O)C2)cccc1-c1cnc(-c2ccc(CC(C)C)c(C#N)c2)nc1 (stereo not shown) [Example 38, 1-[2-(3-{2-[3-cyano-4-(2-methylpropyl)phenyl]-5-pyrimidinyl}-2-ethylphenyl)ethyl]-3-piperidinecarboxylic acid]"
2,≤ 10,"CCc1c(CCN2CC(C(=O)O)C2)cccc1-c1cnc(-c2ccc(CC(C)C)c(C#N)c2)nc1 [Example 36, 1-[2-(3-{2-{3-cyano-4-(2-methylpropyl)phenyl}-5-pyrimidinyl}-2-ethylphenyl)ethyl]-3-azetidinecarboxylic acid]"
3,≤ 10,"CCc1c(CCN2CCC[C@H](C(=O)O)C2)cccc1-c1cnc(-c2ccc(OC(C)C)c(Cl)c2)nc1 [Example 32, (3S)-1-{2-[3-(2-{3-chloro-4-[(1-methylethyl)oxy]phenyl}-5-pyrimidinyl)-2-ethylphenyl]ethyl}-3-piperidinecarboxylic acid]"
4,≤ 10,"CCc1c(CCN(C)CC(=O)O)cccc1-c1cnc(-c2ccc(CC(C)C)c(C#N)c2)nc1 [Example 34, N-[2-(3-{2-[3-cyano-4-(2-methylpropyl)phenyl]-5-pyrimidinyl}-2-ethylphenyl)ethyl]-N-methylglycine trifluoroacetate]"
5,≤ 2,"CCc1c(CCN2CCC(C(=O)O)CC2)cccc1-c1cnc(-c2ccc(CC(C)C)c(C#N)c2)nc1 [Example 40, 1-[2-(3-{2-[3-cyano-4-(2-methylpropyl)phenyl]-5-pyrimidinyl}-2-ethylphenyl)ethyl]-4-piperidinecarboxylic acid]"
6,≤ 10,"CCc1c(CCN(C)CCC(=O)O)cccc1-c1cnc(-c2ccc(CC(C)C)c(C#N)c2)nc1 [Example 35, N-[2-(3-{2-[3-cyano-4-(2-methylpropyl)phenyl]-5-pyrimidinyl}-2-ethylphenyl)ethyl]-N-methyl-b-alanine]"
7,≤ 10,"CCc1c(CCN2CCC(C(=O)O)C2)cccc1-c1cnc(-c2ccc(CC(C)C)c(C#N)c2)nc1 (stereo not shown) [Example 37, 1-[2-(3-{2-[3-cyano-4-(2-methylpropyl)phenyl]-5-pyrimidinyl}-2-ethylphenyl)ethyl]-3-pyrrolidinecarboxylic acid]"
8,≤ 2,"CCc1c(CCN2CCC(C(=O)O)CC2)cccc1-c1cnc(-c2ccc(OC(C)C)c(Cl)c2)nc1 [Example 33, 1-{2-[3-(2-{3-chloro-4-[(1-methylethyl)oxy]phenyl}-5-pyrimidinyl)-2-ethylphenyl]ethyl}-4-piperidinecarboxylic acid]"
9,≤ 10,"CCc1c(CCN2CCC[C@H](C(=O)O)C2)cccc1-c1cnc(-c2ccc(CC(C)C)c(C#N)c2)nc1 [Example 39, (3S)-1-[2-(3-{2-[3-cyano-4-(2-methylpropyl)phenyl]-5-pyrimidinyl}-2-ethylphenyl)ethyl]-3-piperidinecarboxylic acid]"
10,≤ 10,"CCc1c(CCN2CCCC(C(=O)O)C2)cccc1-c1cnc(-c2ccc(OC(C)C)c(Cl)c2)nc1 (stereo not shown) [Example 31, 1-{2-[3-(2-{3-chloro-4-[(1-methylethyl)oxy]phenyl}-5-pyrimidinyl)-2-ethylphenyl]ethyl}-3-piperidinecarboxylic acid]"

# System: circulating lymphocytes
# Assay: not given
# Conditions: animals and man; cited from earlier work
row,SMILES,effect on circulating lymphocytes
1,CCCCCCCCc1ccc(CCC(N)(CO)CO)cc1 [FTY720],reduce circulating lymphocytes

# System: animal models of immune disorders
# Assay: not given
# Conditions: cited from earlier work
row,SMILES,disease modulating activity
1,CCCCCCCCc1ccc(CCC(N)(CO)CO)cc1 [FTY720],disease modulating activity

# System: not given
# Assay: not given
# Conditions: clinical studies, first 24 hours of treatment; cited from earlier work
row,SMILES,bradycardia
1,CCCCCCCCc1ccc(CCC(N)(CO)CO)cc1 [FTY720],results in bradycardia

# System: S1P3 knock-out animals
# Assay: not given
# Conditions: unlike wild type mice; cited from earlier work
row,SMILES,bradycardia
1,CCCCCCCCc1ccc(CCC(N)(CO)CO)cc1 [FTY720],do not demonstrate bradycardia
